The results in this text go back to US20060276464A1, “Diarylsulfone sulfonamides and use thereof” (Wyeth, priority 2005, published 2006).

Series [1] deals with T1, SFRP-1 (Homo sapiens, UniProt Q8N474).
T1 sequence (Q8N474 32-314): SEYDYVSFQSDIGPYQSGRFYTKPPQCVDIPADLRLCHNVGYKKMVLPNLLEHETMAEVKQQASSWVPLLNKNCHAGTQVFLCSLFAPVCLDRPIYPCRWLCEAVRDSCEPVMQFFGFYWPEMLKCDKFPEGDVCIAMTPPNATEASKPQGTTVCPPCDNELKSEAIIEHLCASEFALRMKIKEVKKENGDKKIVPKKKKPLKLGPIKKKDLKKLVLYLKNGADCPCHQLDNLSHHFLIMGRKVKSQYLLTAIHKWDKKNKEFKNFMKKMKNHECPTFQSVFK
Nature of the series: Cell-based assay for in vitro measurement of SFRP-1/SARP2 antagonist activity (U2OS cells co-transfected with 16x TCF-tk-Luciferase reporter, Wnt and hSFRP-1).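 As to all read-outs here: U2OS cells co-transfected with a TCF-tk luciferase reporter, a Wnt vector, hSFRP-1 or empty vector and CMV-βgal, luciferase luminescence read in cell lysates alongside βgal activity.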 The settings on record: for fold induction at 10 µM: U2OS, read-out: Fold Induction with SFRP-1, U2OS cells, single dose 10 μM, luciferase reporter, fold induction over SFRP-1 control. A general note: A reporter such as luciferase makes a cellular process visible.

Series [2] concerns the target T1, SFRP-1. Kind of series: Fluorescence polarization binding assay (competitive displacement of a probe compound from SFRP-1).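 Also: test compound competes with a fluorescent probe held by SFRP-1, seen as a drop in probe anisotropy after incubation in darkness, with anisotropy as function of rising compound dose.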 Conditions: fluorescence anisotropy, 45 nM SFRP-1, 20 nM probe.

What is called IC50 is the concentration at which inhibition is half-maximal. In general, EC50 refers to the midpoint of the concentration-response curve. A low value points to a more potent agent.

On to `CN(CCNS(=O)(=O)c1cc(S(=O)(=O)c2ccccc2)ccc1C(F)(F)F)C(=O)c1ccc(C(C)(C)C)cc1` [Example 838, 4-tert-Butyl-N-methyl-N-[2-({[5-(phenylsulfonyl)-2-(trifluoromethyl)phenyl]sulfonyl}amino)ethyl]benzamide], for which the fold induction at 10 µM in series [1] is 2.5. The compound also displayed an IC50 in series [2] of 1200 nM.

Turning to `CN(CCNS(=O)(=O)c1cc(S(=O)(=O)c2ccccc2)ccc1C(F)(F)F)C(=O)c1ccccc1OC(F)(F)F` [Example 839, N-Methyl-N-[2-({[5-(phenylsulfonyl)-2-(trifluoromethyl)phenyl]sulfonyl}amino)ethyl]-2-(trifluoromethoxy)benzamide], in series [1], the EC50 was 2380 nM and the fold induction at 10 µM is 3.5. For the same compound, the IC50 in series [2] worked out at 300 nM.

Take `O=S(=O)(NC1CCNC1)c1cc(S(=O)(=O)c2ccccc2)ccc1C(F)(F)F` (stereo not shown) [Example 840, 5-(phenylsulfonyl)-N-pyrrolidin-3-yl-2-(trifluoromethyl)benzenesulfonamide]: in series [1], the fold induction at 10 µM was determined as 2.9. This compound returned an IC50 in series [2] of 800 nM.

With `Cc1ccc(S(=O)(=O)c2ccc(F)cc2)cc1S(=O)(=O)NC1C[C@@H](C)O[C@@H](C)C1` (stereo partly drawn) [Example 841, N-[(2R*,4S*,6S*)-2,6-dimethyltetrahydro-2H-pyran-4-yl]-5-[(4-fluorophenyl)sulfonyl]-2-methylbenzenesulfonamide], the “Fold Induction with SFRP-1” value in series [1] (U2OS cells, single dose 10 μM, luciferase reporter, fold induction over SFRP-1 control) amounted to 1.6. Besides, in series [2], the IC50 turned out to be 18000 nM.

As for `CNc1ccc(S(=O)(=O)c2ccc(C(F)(F)F)c(S(=O)(=O)NC3CCNCC3)c2)cc1` [Example 842, 5-{[4-(methylamino)phenyl]sulfonyl}-N-piperidin-4-yl-2-(trifluoromethyl)benzenesulfonamide], in series [1], the EC50 stood at 670 nM and the fold induction at 10 µM was determined as 4.2. This compound also came in with an IC50 in series [2] of 190 nM.

Take `CN(C)c1ccc(S(=O)(=O)c2ccc(C(F)(F)F)c(S(=O)(=O)NC3CCNCC3)c2)cc1` [Example 843, 5-{[4-(dimethylamino)phenyl]sulfonyl}-N-piperidin-4-yl-2-(trifluoromethyl)benzenesulfonamide]: in series [1], the EC50 came out at 2010 nM and the fold induction at 10 µM worked out at 4.7. In series [2], this compound registered an IC50 of 260 nM.

With `O=S(=O)(NC1CCNCC1)c1cc(S(=O)(=O)c2ccc(NCCO)cc2)ccc1C(F)(F)F` [Example 844, 5-({4-[(2-hydroxyethyl)amino]phenyl}sulfonyl)-N-piperidin-4-yl-2-(trifluoromethyl)benzenesulfonamide], in series [1], the EC50 was determined as 500 nM and the fold induction at 10 µM is 4.4. Also, in series [2], the IC50 worked out at 160 nM.

Consider `O=S(=O)(NCCn1ccnc1)c1cc(S(=O)(=O)c2ccccc2F)ccc1C(F)(F)F` [Example 845, 5-[(2-fluorophenyl)sulfonyl]-N-[2-(1H-imidazol-1-yl)ethyl]-2-(trifluoromethyl)benzenesulfonamide], for which, in series [1], the response was half-maximal at 807 nM (EC50) and the fold induction at 10 µM was determined as 3.8. This compound registered an IC50 in series [2] of 500 nM.

Take `CN(CCNS(=O)(=O)c1cc(S(=O)(=O)c2ccccc2)ccc1C(F)(F)F)C(=O)C1CCCCC1` [Example 846, N-methyl-N-[2-({[5-(phenylsulfonyl)-2-(trifluoromethyl)phenyl]sulfonyl}amino)ethyl]cyclohexanecarboxamide]: in series [1], the EC50 came to 2670 nM and the fold induction at 10 µM came out at 3.2. Also, the IC50 in series [2] amounted to 300 nM.

Turning to `CN(CCNS(=O)(=O)c1cc(S(=O)(=O)c2ccccc2)ccc1C(F)(F)F)C(=O)c1ccc(C(F)(F)F)c(F)c1` [Example 847, 3-Fluoro-N-methyl-N-[2-({[5-(phenylsulfonyl)-2-(trifluoromethyl)phenyl]sulfonyl}amino)ethyl]-4-(trifluoromethyl)benzamide], the fold induction at 10 µM in series [1] worked out at 2.4. This compound also had an IC50 in series [2] of 2200 nM.

For the compound `COC(=O)c1ccc(C(=O)N(C)CCNS(=O)(=O)c2cc(S(=O)(=O)c3ccccc3)ccc2C(F)(F)F)cc1` [Example 848, Methyl 4-({methyl[2-({[5-(phenylsulfonyl)-2-(trifluoromethyl)phenyl]sulfonyl}amino)ethyl]amino}carbonyl)benzoate], in series [1], the EC50 is 1640 nM and the fold induction at 10 µM stood at 3.6. Also, the IC50 in series [2] was 700 nM.

As to `CN(CCNS(=O)(=O)c1cc(S(=O)(=O)c2ccccc2)ccc1C(F)(F)F)C(=O)c1cccnc1` [Example 849, N-Methyl-N-[2-({[5-(phenylsulfonyl)-2-(trifluoromethyl)phenyl]sulfonyl}amino)ethyl]nicotinamide], in series [1], the EC50 came out at 2100 nM and the fold induction at 10 µM worked out at 3.9. The IC50 in series [2] stood at 700 nM.

Turning to `CN(CCNS(=O)(=O)c1cc(S(=O)(=O)c2ccccc2)ccc1C(F)(F)F)C(=O)c1ccncc1` [Example 850, N-Methyl-N-[2-({[5-(phenylsulfonyl)-2-(trifluoromethyl)phenyl]sulfonyl}amino)ethyl]isonicotinamide], in series [1], the EC50 came out at 1520 nM and the fold induction at 10 µM amounted to 3.5. In series [2], this compound displayed an IC50 of 600 nM.

For `CN(CCNS(=O)(=O)c1cc(S(=O)(=O)c2ccccc2)ccc1C(F)(F)F)C(=O)c1cccnc1Cl` [Example 851, 2-Chloro-N-methyl-N-[2-({[5-(phenylsulfonyl)-2-(trifluoromethyl)phenyl]sulfonyl}amino)ethyl]nicotinamide], in series [1], the EC50 was 1510 nM and the fold induction at 10 µM stood at 3.6. In series [2], this compound displayed an IC50 of 400 nM.

`CN(CCNS(=O)(=O)c1cc(S(=O)(=O)c2ccccc2)ccc1C(F)(F)F)C(=O)C(C)(C)C` [Example 852, N,2,2-trimethyl-N-[2-({[5-(phenylsulfonyl)-2-(trifluoromethyl)phenyl]sulfonyl}amino)ethyl]propanamide]: in series [1], the response was half-maximal at 1650 nM (EC50) and the fold induction at 10 µM came out at 3.3. In addition, the concentration for half-maximal inhibition (IC50) in series [2] was determined as 300 nM.

For the compound `O=C(O)c1cccc(NC(=S)N2CCC(NS(=O)(=O)c3cc(S(=O)(=O)c4ccccc4)ccc3C(F)(F)F)CC2)c1` [Example 855, 3-({[4-({[5-(phenylsulfonyl)-2-(trifluoromethyl)phenyl]sulfonyl}amino)piperidin-1-yl]carbonothioyl}amino)benzoic acid], in series [1], the concentration giving a half-maximal response (EC50) came to 137 nM and the fold induction at 10 µM was found to be 3.4. This compound had an IC50 in series [2] of 40 nM.

Regarding `Cc1cc(C(=O)N2CCC(NS(=O)(=O)c3cc(S(=O)(=O)c4ccccc4)ccc3C(F)(F)F)CC2)cc(Cl)n1` [Example 856, N-[1-(2-chloro-6-methylisonicotinoyl)piperidin-4-yl]-5-(phenylsulfonyl)-2-(trifluoromethyl)benzenesulfonamide], in series [1], it took 360 nM to reach a half-maximal effect (EC50) and the fold induction at 10 µM came to 4.2. Moreover, the IC50 in series [2] stood at 100 nM.

As to `O=C(c1cc(Cl)nc(Cl)c1)N1CCC(NS(=O)(=O)c2cc(S(=O)(=O)c3ccccc3)ccc2C(F)(F)F)CC1` [Example 857, N-[1-(2,6-dichloroisonicotinoyl)piperidin-4-yl]-5-(phenylsulfonyl)-2-(trifluoromethyl)benzenesulfonamide], in series [1], a half-maximal response (EC50) required 1190 nM and the fold induction at 10 µM turned out to be 4.4. The IC50 in series [2] is 150 nM.

As for `CC(C)c1ccc(S(=O)(=O)c2ccc(F)cc2)cc1S(=O)(=O)NC1CCS(=O)(=O)CC1` [Example 858, N-(1,1-dioxidotetrahydro-2H-thiopyran-4-yl)-5-[(4-fluorophenyl)sulfonyl]-2-isopropylbenzenesulfonamide], the fold induction at 10 µM in series [1] amounted to 3.8. In series [2], the IC50 is 1400 nM.

As to `CNc1ccccc1S(=O)(=O)c1ccc(C(F)(F)F)c(S(=O)(=O)NC2CCNCC2)c1` [Example 861, 5-{[2-(methylamino)phenyl]sulfonyl}-N-piperidin-4-yl-2-(trifluoromethyl)benzenesulfonamide], in series [1], the half-maximal effective concentration (EC50) turned out to be 1780 nM and the fold induction at 10 µM was found to be 4. The compound also gave an IC50 in series [2] of 600 nM.

Consider `CN(C)c1ccccc1S(=O)(=O)c1ccc(C(F)(F)F)c(S(=O)(=O)NC2CCNCC2)c1` [Example 862, 5-{[2-(dimethylamino)phenyl]sulfonyl}-N-piperidin-4-yl-2-(trifluoromethyl)benzenesulfonamide], for which, in series [1], the fold induction at 10 µM came to 4. Besides, in series [2], the IC50 amounted to 1300 nM.

As for `O=S(=O)(NCCc1nn[nH]n1)c1cc(S(=O)(=O)c2ccccc2)ccc1C(F)(F)F` [Example 863, 5-(phenylsulfonyl)-N-[2-(2H-tetrazol-5-yl)ethyl]-2-(trifluoromethyl)benzenesulfonamide], the fold induction at 10 µM in series [1] is 2.4. Moreover, the IC50 in series [2] was 1800 nM.

Regarding `CCC(CC)C(=O)N(C)CCNS(=O)(=O)c1cc(S(=O)(=O)c2ccccc2)ccc1C(F)(F)F` [Example 864, 2-ethyl-N-methyl-N-[2-({[5-(phenylsulfonyl)-2-(trifluoromethyl)phenyl]sulfonyl}amino)ethyl]butanamide], in series [1], the midpoint of the response, the EC50, lay at 1800 nM and the fold induction at 10 µM came to 3.2. Besides, the IC50 in series [2] was found to be 300 nM.

On to `CCCCOC(=O)N(C)CCNS(=O)(=O)c1cc(S(=O)(=O)c2ccccc2)ccc1C(F)(F)F` [Example 865, butyl methyl[2-({[5-(phenylsulfonyl)-2-(trifluoromethyl)phenyl]sulfonyl}amino)ethyl]carbamate], for which, in series [1], the EC50 was 2140 nM and the fold induction at 10 µM is 2.9. Besides, the IC50 in series [2] is 300 nM.

Regarding `CN(CCNS(=O)(=O)c1cc(S(=O)(=O)c2ccccc2)ccc1C(F)(F)F)C(=O)NC1CCN(C(=O)OC(C)(C)C)CC1` [Example 866], in series [1], the fold induction at 10 µM was 4.6. Besides, the IC50 in series [2] stood at 800 nM.
